Source: PubChem BioAssay (NCI)
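96-well plates; 48 h exposure; 5 concentrations. Endpoints by linear interpolation between flanking doses. Not reached: highest tested concentration assigned. GI50 is the concentration that inhibits growth by half. TGI marks complete inhibition of growth.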

Key:
Assay in all cases: DTP human tumour cell line panel, 48 h
786-0 renal = tested on: 786-0 renal
A498 renal = tested on: A498 renal
A549 NSCLC = tested on: A549 NSCLC
ACHN renal = tested on: ACHN renal
BT-549 breast = tested on: BT-549 breast
CAKI-1 renal = tested on: CAKI-1 renal
CCRF-CEM leukemia = tested on: CCRF-CEM leukemia
COLO 205 colon = tested on: COLO 205 colon
DU-145 prostate = tested on: DU-145 prostate
EKVX NSCLC = tested on: EKVX NSCLC
HCC-2998 colon = tested on: HCC-2998 colon
HCT-116 colon = tested on: HCT-116 colon
HCT-15 colon = tested on: HCT-15 colon
HOP-62 NSCLC = tested on: HOP-62 NSCLC
HT29 colon = tested on: HT29 colon
IGROV1 ovarian = tested on: IGROV1 ovarian
K-562 leukemia = tested on: K-562 leukemia
KM12 colon = tested on: KM12 colon
LOX IMVI melanoma = tested on: LOX IMVI melanoma
M14 melanoma = tested on: M14 melanoma
MALME-3M melanoma = tested on: MALME-3M melanoma
MCF7 breast = tested on: MCF7 breast
MDA-MB-231 breast = tested on: MDA-MB-231 breast
MDA-MB-435 = tested on: MDA-MB-435
MDA-N = tested on: MDA-N
MOLT-4 leukemia = tested on: MOLT-4 leukemia
NCI-H226 lung = tested on: NCI-H226 lung
NCI-H23 lung = tested on: NCI-H23 lung
NCI-H460 lung = tested on: NCI-H460 lung
NCI-H522 lung = tested on: NCI-H522 lung
NCI/ADR-RES ovarian = tested on: NCI/ADR-RES ovarian
OVCAR-3 ovarian = tested on: OVCAR-3 ovarian
OVCAR-4 ovarian = tested on: OVCAR-4 ovarian
OVCAR-5 ovarian = tested on: OVCAR-5 ovarian
OVCAR-8 ovarian = tested on: OVCAR-8 ovarian
PC-3 prostate = tested on: PC-3 prostate
RPMI-8226 leukemia = tested on: RPMI-8226 leukemia
RXF 393 renal = tested on: RXF 393 renal
SF-268 CNS = tested on: SF-268 CNS
SF-295 CNS = tested on: SF-295 CNS
SF-539 CNS = tested on: SF-539 CNS
SK-MEL-2 melanoma = tested on: SK-MEL-2 melanoma
SK-MEL-28 melanoma = tested on: SK-MEL-28 melanoma
SK-MEL-5 melanoma = tested on: SK-MEL-5 melanoma
SK-OV-3 ovarian = tested on: SK-OV-3 ovarian
SN12C renal = tested on: SN12C renal
SNB-19 CNS = tested on: SNB-19 CNS
SNB-75 CNS = tested on: SNB-75 CNS
SR leukemia = tested on: SR leukemia
SW-620 colon = tested on: SW-620 colon
TK-10 renal = tested on: TK-10 renal
U251 CNS = tested on: U251 CNS
UACC-257 melanoma = tested on: UACC-257 melanoma
UACC-62 melanoma = tested on: UACC-62 melanoma
UO-31 renal = tested on: UO-31 renal
HL-60(TB) leukemia = tested on: HL-60(TB) leukemia
HOP-92 NSCLC = tested on: HOP-92 NSCLC
HS 578T breast = tested on: HS 578T breast
T-47D breast = tested on: T-47D breast

## CC12CC(=O)C3C(C(=O)C1)C32C (stereo unspecified)
786-0 renal
  TGI: > 100 µM
A498 renal
  TGI: > 100 µM
A549 NSCLC
  TGI: > 100 µM
ACHN renal
  TGI: > 100 µM
BT-549 breast
  TGI: > 100 µM
CAKI-1 renal
  TGI: > 100 µM
CCRF-CEM leukemia
  TGI: > 100 µM
COLO 205 colon
  TGI: > 100 µM
DU-145 prostate
  TGI: > 100 µM
EKVX NSCLC
  TGI: > 100 µM
HCC-2998 colon
  TGI: > 100 µM
HCT-116 colon
  TGI: > 100 µM
HCT-15 colon
  TGI: > 100 µM
HOP-62 NSCLC
  TGI: > 100 µM
HT29 colon
  TGI: > 100 µM
IGROV1 ovarian
  TGI: > 100 µM
K-562 leukemia
  TGI: > 100 µM
KM12 colon
  TGI: > 100 µM
LOX IMVI melanoma
  TGI: > 100 µM
M14 melanoma
  TGI: > 100 µM
MALME-3M melanoma
  TGI: > 100 µM
MCF7 breast
  TGI: > 100 µM
MDA-MB-231 breast
  TGI: > 100 µM
MDA-MB-435
  TGI: > 100 µM
MDA-N
  TGI: > 100 µM
MOLT-4 leukemia
  TGI: > 100 µM
NCI-H226 lung
  TGI: > 100 µM
NCI-H23 lung
  TGI: > 100 µM
NCI-H460 lung
  TGI: > 100 µM
NCI-H522 lung
  TGI: > 100 µM
NCI/ADR-RES ovarian
  TGI: > 100 µM
OVCAR-3 ovarian
  TGI: > 100 µM
OVCAR-4 ovarian
  TGI: > 100 µM
OVCAR-5 ovarian
  TGI: > 100 µM
OVCAR-8 ovarian
  TGI: > 100 µM
PC-3 prostate
  TGI: > 100 µM
RPMI-8226 leukemia
  TGI: > 100 µM
RXF 393 renal
  TGI: > 100 µM
SF-268 CNS
  TGI: > 100 µM
SF-295 CNS
  TGI: > 100 µM
SF-539 CNS
  TGI: > 100 µM
SK-MEL-2 melanoma
  TGI: > 100 µM
SK-MEL-28 melanoma
  TGI: > 100 µM
SK-MEL-5 melanoma
  TGI: > 100 µM
SK-OV-3 ovarian
  TGI: > 100 µM
SN12C renal
  TGI: > 100 µM
SNB-19 CNS
  TGI: > 100 µM
SNB-75 CNS
  TGI: > 100 µM
SR leukemia
  TGI: > 100 µM
SW-620 colon
  TGI: > 100 µM
TK-10 renal
  TGI: > 100 µM
U251 CNS
  TGI: > 100 µM
UACC-257 melanoma
  TGI: > 100 µM
UACC-62 melanoma
  TGI: > 100 µM
UO-31 renal
  TGI: > 100 µM

## O=S(=O)(CCOCc1ccc(-c2ccc3ncnc(Nc4ccc(OCc5cccc(F)c5)c(Cl)c4)c3c2)o1)c1ccccc1
786-0 renal
  GI50: > 25 µM
  TGI: > 25 µM
A498 renal
  GI50: > 7 µM
  TGI: > 25 µM
A549 NSCLC
  GI50: > 25 µM
  TGI: > 25 µM
ACHN renal
  GI50: 1.86 µM
  TGI: > 25 µM
BT-549 breast
  GI50: > 25 µM
  TGI: > 25 µM
CAKI-1 renal
  GI50: 0.831 µM
  TGI: > 25 µM
CCRF-CEM leukemia
  GI50: > 25 µM
  TGI: > 25 µM
COLO 205 colon
  GI50: > 25 µM
  TGI: > 25 µM
DU-145 prostate
  GI50: > 25 µM
  TGI: > 25 µM
EKVX NSCLC
  GI50: 0.754 µM
  TGI: > 25 µM
HCC-2998 colon
  GI50: > 25 µM
  TGI: > 25 µM
HCT-116 colon
  GI50: > 25 µM
  TGI: > 25 µM
HCT-15 colon
  GI50: > 25 µM
  TGI: > 25 µM
HL-60(TB) leukemia
  GI50: > 25 µM
  TGI: > 25 µM
HOP-62 NSCLC
  GI50: > 25 µM
  TGI: > 25 µM
HOP-92 NSCLC
  GI50: > 25 µM
  TGI: > 25 µM
HS 578T breast
  GI50: > 11 µM
  TGI: > 25 µM
HT29 colon
  GI50: > 25 µM
  TGI: > 25 µM
IGROV1 ovarian
  GI50: > 25 µM
  TGI: > 25 µM
K-562 leukemia
  GI50: > 25 µM
  TGI: > 25 µM
KM12 colon
  GI50: > 25 µM
  TGI: > 25 µM
LOX IMVI melanoma
  GI50: > 25 µM
  TGI: > 25 µM
M14 melanoma
  GI50: > 25 µM
  TGI: > 25 µM
MALME-3M melanoma
  GI50: > 25 µM
  TGI: > 25 µM
MCF7 breast
  GI50: > 25 µM
  TGI: > 25 µM
MDA-MB-231 breast
  GI50: > 25 µM
  TGI: > 25 µM
MDA-MB-435
  GI50: > 25 µM
  TGI: > 25 µM
MOLT-4 leukemia
  GI50: > 25 µM
  TGI: > 25 µM
NCI-H226 lung
  GI50: > 25 µM
  TGI: > 25 µM
NCI-H23 lung
  GI50: > 25 µM
  TGI: > 25 µM
NCI-H460 lung
  GI50: > 25 µM
  TGI: > 25 µM
NCI-H522 lung
  GI50: > 25 µM
  TGI: > 25 µM
NCI/ADR-RES ovarian
  GI50: > 25 µM
  TGI: > 25 µM
OVCAR-3 ovarian
  GI50: > 25 µM
  TGI: > 25 µM
OVCAR-4 ovarian
  GI50: > 25 µM
  TGI: > 25 µM
OVCAR-5 ovarian
  GI50: > 25 µM
  TGI: > 25 µM
OVCAR-8 ovarian
  GI50: > 25 µM
  TGI: > 25 µM
PC-3 prostate
  GI50: > 25 µM
  TGI: > 25 µM
RPMI-8226 leukemia
  GI50: > 25 µM
  TGI: > 25 µM
RXF 393 renal
  GI50: > 25 µM
  TGI: > 25 µM
SF-268 CNS
  GI50: > 25 µM
  TGI: > 25 µM
SF-295 CNS
  GI50: > 25 µM
  TGI: > 25 µM
SF-539 CNS
  GI50: > 25 µM
  TGI: > 25 µM
SK-MEL-2 melanoma
  GI50: > 25 µM
  TGI: > 25 µM
SK-MEL-28 melanoma
  GI50: > 25 µM
  TGI: > 25 µM
SK-MEL-5 melanoma
  GI50: > 25 µM
  TGI: > 25 µM
SK-OV-3 ovarian
  GI50: 0.143 µM
  TGI: > 25 µM
SN12C renal
  GI50: > 25 µM
  TGI: > 25 µM
SNB-19 CNS
  GI50: > 25 µM
  TGI: > 25 µM
SNB-75 CNS
  GI50: > 25 µM
  TGI: > 25 µM
SR leukemia
  GI50: > 25 µM
  TGI: > 25 µM
SW-620 colon
  GI50: > 25 µM
  TGI: > 25 µM
T-47D breast
  GI50: > 6.73 µM
  TGI: > 25 µM
TK-10 renal
  GI50: 1.17 µM
  TGI: > 25 µM
U251 CNS
  GI50: > 25 µM
  TGI: > 25 µM
UACC-257 melanoma
  GI50: > 25 µM
  TGI: > 25 µM
UACC-62 melanoma
  GI50: > 25 µM
  TGI: > 25 µM
UO-31 renal
  GI50: > 7.54 µM
  TGI: > 25 µM
